Laboratory results reported in patent publication EP1263429B1, “ANTIVIRAL THERAPY” (Universiteit Utrecht, priority 2000, dated 2001).

System: Monocyte-derived macrophages (MDM)
Type: cell-based, human
Experimental: Cell viability is assessed by the MTT assay. In short, cells are incubated with MTT 3-(4,5-dimethylthiazol-2-yl)-2,5-diphenyltetrazollumbromide (Sigma) for 2 hours at 37 °C. During this time viable cells convert MTT into […] formazan dyes. Afterwards crystals are solubilised with a solution containing isopropanol. The OD of the supernatant is measured at 550 nm.
Monocyte-derived macrophages (MDM) were obtained like described above. MDM were then washed twice and cultured for 4 to 7 days in different concentrations of APHS. After a 4 days incubation period cellular viability was assessed by MTT cytotoxicity assay where viable cells convert MTT into a colored formazan dye that can be measured spectrophotometrically.
• Fig. 1 - Plasmids that are used for studies on the effect of compounds on HIV promotor activity. • Fig. 2 - Peripheral blood mononuclear cells (PBMC) were isolated from heparinized blood from HIV-1-, HIV-2-, and hepatitis B-seronegative donors and obtained on Ficoll-Hypaque density gradients. PBMC were washed twice and monocytes were purified by countercurrent centrifugal elutriation. […] After 4 and 5 days of incubation samples of culture supernatant were collected and p24-core antigen production was quantified using the enzyme-linked immunosorbent assay (ELISA) system of John Moore. […]

CCCCC#CCSc1ccccc1OC(C)=O [APHS, o-(acetoxy-phenyl)hept-2-ynyl sulphide]
cytotoxicity (cellular viability, MTT): None of the tested concentrations of APHS was found to be cytotoxic
